Like-named read-outs stand apart in the source and are kept apart here. Non-standard residues stand in square brackets, D forms with d. Residues, ends and D or L forms follow the SMILES beside them. *: point of attachment. FITC = O=C1OC2(c3ccc(O)cc3Oc3cc(O)ccc32)c2ccc(NC(=S)*)cc21; Benzoyl(2,3,4,5,6-F5) = O=C(c1c(F)c(F)c(F)c(F)c1F)*; Benzoyl(2,3-Cl2) = O=C(c1cccc(Cl)c1Cl)*; X4 = O=C(c1cc(F)c(F)c(F)c1F)*; Tle = CC(C)(C)[C@H](N)C(=O)O; X6 = O=C(c1ccc(Br)c(Cl)c1)*; X5 = Cc1ccc(C(=O)*)c(F)c1F; AEEA = NCCOCCOCC(=O)O
Target: T1, Calcineurin (GST-CN) (Homo sapiens, UniProt Q08209)
T1 construct: made in house; host or cells: E. coli BL21
Assay: Direct binding of FITC-labeled peptides to CN by fluorescence anisotropy/polarization
Details: for Kd: Table 5, acyl-ZIZITGPHEEYK(FITC)-NH2 peptides, FA
Procedure: To facilitate concentration determination and binding analysis by fluorescence anisotropy (FA), a dipeptide Tyr-Lys was added to the C-terminus of ZIZIT (SEQ ID NO:1) and the lysine side chain was labeled with fluorescein isothiocyanate (FITC). The resulting peptide,
Fluorescence Polarization. Fluorescence polarization (FP) experiments were carried out to measure binding affinity in both direct and competitive binding experiments using GST-CN and peptides prepared as mentioned previously. For direct binding, 50 nM FITC-labeled peptide was prepared in PBS, pH 7.4 containing 5 mM DTT and 0.01% Triton-X100 and then added to GST-CN diluted in PBS containing 0.01% Triton-X100. Solutions were incubated for 1 h at RT with gentle mixing and then pipetted into black 384-well microplates. Fluorescence polarization was measured on a TECAN Infinite M1000 plate reader and titration curves were fitted using both KaelidaGraph v 3.6 and GraphPad PRISM to the equation:
[formula] • where FP is the measured fluorescence polarization, Amin is the minimum FP value, Amax is the maximum FP signal, Qb is the quantum yield of the bound fluorophore, Qf is the quantum yield of the free fluorophore, L is the ligand concentration, KD is the dissociation constant and x is the protein concentration.

T1 sequence (Q08209 2-347 limits assumed): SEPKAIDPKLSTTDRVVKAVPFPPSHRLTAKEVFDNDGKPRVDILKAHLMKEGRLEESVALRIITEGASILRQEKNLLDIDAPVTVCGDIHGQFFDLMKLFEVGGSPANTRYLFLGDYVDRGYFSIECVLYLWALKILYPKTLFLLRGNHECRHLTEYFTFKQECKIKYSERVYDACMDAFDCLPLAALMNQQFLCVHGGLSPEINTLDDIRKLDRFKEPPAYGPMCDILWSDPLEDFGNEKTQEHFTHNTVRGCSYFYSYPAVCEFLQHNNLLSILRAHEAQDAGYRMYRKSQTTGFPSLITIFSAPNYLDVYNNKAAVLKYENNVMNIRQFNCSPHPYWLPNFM

| Structure (SMILES) | Kd (KD (nM)) | Kd (read-out: KD) | further results |
| --- | --- | --- | --- |
| CC[C@H](C)[C@H](NC(=O)[C@@H](NC(=O)c1cc(F)c(F)c(F)c1F)C(C)(C)C)C(=O)N[C@H](C(=O)N[C@H](C(=O)N[C@H](C(=O)NCC(=O)N1CCC[C@H]1C(=O)N[C@@H](Cc1c[nH]cn1)C(=O)N[C@@H](CCC(=O)O)C(=O)N[C@@H](CCC(=O)O)C(=O)N[C@@H](Cc1ccc(O)cc1)C(=O)N[C@@H](CCCCNC(=S)Nc1ccc2c(c1)C(=O)OC21c2ccc(O)cc2Oc2cc(O)ccc21)C(N)=O)[C@@H](C)O)[C@@H](C)CC)C(C)(C)C [Peptide 7] (X4-[Tle]I[Tle]ITGPHEEYK(FITC)-NH2) | 32 to 189 nM | – | – |
| CC[C@H](C)[C@H](NC(=O)[C@@H](NC(=O)c1ccc(C)c(F)c1F)C(C)(C)C)C(=O)N[C@H](C(=O)N[C@H](C(=O)N[C@H](C(=O)NCC(=O)N1CCC[C@H]1C(=O)N[C@@H](Cc1c[nH]cn1)C(=O)N[C@@H](CCC(=O)O)C(=O)N[C@@H](CCC(=O)O)C(=O)N[C@@H](Cc1ccc(O)cc1)C(=O)N[C@@H](CCCCNC(=S)Nc1ccc2c(c1)C(=O)OC21c2ccc(O)cc2Oc2cc(O)ccc21)C(N)=O)[C@@H](C)O)[C@@H](C)CC)C(C)(C)C [Peptide 8] (X5-[Tle]I[Tle]ITGPHEEYK(FITC)-NH2) | – | 32 to 189 nM | – |
| CC[C@H](C)[C@H](NC(=O)[C@@H](NC(=O)c1cccc(Cl)c1Cl)C(C)(C)C)C(=O)N[C@H](C(=O)N[C@H](C(=O)N[C@H](C(=O)NCC(=O)N1CCC[C@H]1C(=O)N[C@@H](Cc1c[nH]cn1)C(=O)N[C@@H](CCC(=O)O)C(=O)N[C@@H](CCC(=O)O)C(=O)N[C@@H](Cc1ccc(O)cc1)C(=O)N[C@@H](CCCCNC(=S)Nc1ccc2c(c1)C(=O)OC21c2ccc(O)cc2Oc2cc(O)ccc21)C(N)=O)[C@@H](C)O)[C@@H](C)CC)C(C)(C)C [Peptide 9] ({Benzoyl(2,3-Cl2)}-[Tle]I[Tle]ITGPHEEYK(FITC)-NH2) | 32 to 189 nM | – | – |
| CC[C@H](C)[C@H](NC(=O)[C@@H](NC(=O)c1ccc(Br)c(Cl)c1)C(C)(C)C)C(=O)N[C@H](C(=O)N[C@H](C(=O)N[C@H](C(=O)NCC(=O)N1CCC[C@H]1C(=O)N[C@@H](Cc1c[nH]cn1)C(=O)N[C@@H](CCC(=O)O)C(=O)N[C@@H](CCC(=O)O)C(=O)N[C@@H](Cc1ccc(O)cc1)C(=O)N[C@@H](CCCCNC(=S)Nc1ccc2c(c1)C(=O)OC21c2ccc(O)cc2Oc2cc(O)ccc21)C(N)=O)[C@@H](C)O)[C@@H](C)CC)C(C)(C)C [Peptide 10] (X6-[Tle]I[Tle]ITGPHEEYK(FITC)-NH2) | – | 32 to 189 nM | – |
| CC[C@H](C)[C@H](NC(=O)[C@@H](NC(=O)c1c(F)c(F)c(F)c(F)c1F)C(C)(C)C)C(=O)N[C@H](C(=O)N[C@H](C(=O)N[C@H](C(=O)NCC(=O)N1CCC[C@H]1C(=O)N[C@@H](Cc1c[nH]cn1)C(=O)N[C@@H](CCC(=O)O)C(=O)N[C@@H](CCC(=O)O)C(=O)N[C@@H](Cc1ccc(O)cc1)C(=O)N[C@@H](CCCCNC(=S)Nc1ccc2c(c1)C(=O)OC21c2ccc(O)cc2Oc2cc(O)ccc21)C(N)=O)[C@@H](C)O)[C@@H](C)CC)C(C)(C)C [Peptide 11] ({Benzoyl(2,3,4,5,6-F5)}-[Tle]I[Tle]ITGPHEEYK(FITC)-NH2) | – | 32 to 189 nM | – |
| CC[C@H](C)[C@H](NC(=O)[C@@H](NC(=O)c1cccc(Cl)c1Cl)C(C)(C)C)C(=O)N[C@H](C(=O)N[C@H](C(=O)N[C@H](C(=O)NCCOCCOCC(=O)N[C@@H](CCCCNC(=S)Nc1ccc2c(c1)C(=O)OC21c2ccc(O)cc2Oc2cc(O)ccc21)C(N)=O)[C@@H](C)O)[C@@H](C)CC)C(C)(C)C [Peptide 12, Dcb-ZIZIT-miniPEG-Lys (FITC)] ({Benzoyl(2,3-Cl2)}-[Tle]I[Tle]IT[AEEA]K(FITC)-NH2; C-terminus assumed) | – | – | decrease in binding affinity on removal of C-terminal pentapeptide (GPHEE) (peptide 12 versus peptide 9): 17 fold |
